From patent US12617773B2, “Azetidin-3-ylmethanol derivatives as CCR6 receptor modulators” (Idorsia Pharmaceuticals Ltd, priority 2020, dated 2026) come the findings set out here.

The term IC50 denotes the concentration needed to halve the response being measured.

For this experiment, the target named is T1, human CCR6 (Homo sapiens, UniProt P51684).
T1 construct: expressed in transfected cells; host or cells: HEK-293
T1 sequence (P51684 1-374): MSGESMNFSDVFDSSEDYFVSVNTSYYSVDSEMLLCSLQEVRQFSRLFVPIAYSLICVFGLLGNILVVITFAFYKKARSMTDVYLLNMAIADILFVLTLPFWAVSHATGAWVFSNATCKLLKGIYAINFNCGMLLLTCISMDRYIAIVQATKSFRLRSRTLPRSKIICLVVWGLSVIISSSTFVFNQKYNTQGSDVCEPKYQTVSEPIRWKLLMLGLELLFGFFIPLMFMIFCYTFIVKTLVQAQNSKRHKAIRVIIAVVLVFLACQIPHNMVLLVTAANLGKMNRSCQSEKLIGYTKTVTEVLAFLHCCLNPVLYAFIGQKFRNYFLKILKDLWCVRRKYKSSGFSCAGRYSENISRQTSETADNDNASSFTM
As to the kind of experiment: FLIPR assay (inhibition of CCL20-induced calcium signal). The format is cell-based. The settings on record: HEK-293 cells expressing human CCR6; mean values where determined several times; read-out: FLIPR IC50. In a few lines:
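Dye-loaded HEK-293 cells expressing human CCR6 were preincubated with compound for 30 min at room temperature in the dark, then challenged with 10 nM CCL20 (final). Fluorescence was tracked on FLIPR, and baseline-subtracted peak emission over base after agonist addition gave inhibition dose-response curves for IC50.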
As to `CC(C)c1ccc([C@](O)(c2cncc(-c3noc(C4(C)CCNCC4)n3)c2)C2(C)CN(C)C2)cc1` [Example 368], the IC50 was 0.271 µM. Next, `CC(C)c1ccc([C@](O)(c2cncc(-c3noc(C4(F)CCNCC4)n3)c2)C2(C)CN(C)C2)cc1` [Example 369]: 0.187 µM; `CCCC(=O)N1CCC(c2nc(-c3cncc([C@@](O)(c4ccc(C(C)C)cc4)C4(C)CN(C)C4)c3)no2)CC1` [Example 370, 1-[4-(3-{5-[(R)-(1,3-Dimethyl-azetidin-3-yl)-hydroxy-(4-isopropyl-phenyl)-methyl]-pyridin-3-yl}-[1,2,4]oxadiazol-5-yl)-piperidin-1-yl]-butan-1-one]: 0.0659 µM. Next, `CC(C)c1ccc([C@](O)(c2cncc(-c3noc(C4CCN(C(=O)C(C)(C)C)CC4)n3)c2)C2(C)CN(C)C2)cc1` [Example 371]: 0.0497 µM; `COCC(=O)N1CCC(c2nc(-c3cncc([C@@](O)(c4ccc(C(C)C)cc4)C4(C)CN(C)C4)c3)no2)CC1` [Example 372]: 0.103 µM; `COCCC(=O)N1CCC(c2nc(-c3cncc([C@@](O)(c4ccc(C(C)C)cc4)C4(C)CN(C)C4)c3)no2)CC1` [Example 373]: 0.0889 µM. On to `CC(C)c1ccc([C@](O)(c2cncc(-c3noc(C4CCN(C(=O)C5CC5)CC4)n3)c2)C2(C)CN(C)C2)cc1` [Example 374], for which the IC50 came out at 0.039 µM.

For `CC(C)c1ccc([C@](O)(c2cncc(-c3noc(C4CCN(C(=O)C5CCCC5)CC4)n3)c2)C2(C)CN(C)C2)cc1` [Example 375], the IC50 turned out to be 0.0397 µM. Next, `CC(C)c1ccc([C@](O)(c2cncc(-c3noc(C4CCN(C(=O)C5CCOCC5)CC4)n3)c2)C2(C)CN(C)C2)cc1` [Example 376]: 0.102 µM. As for `CC(C)c1ccc([C@](O)(c2cncc(-c3noc(C4CCN(C(=O)c5ccccc5)CC4)n3)c2)C2(C)CN(C)C2)cc1` [Example 377], the IC50 came to 0.0395 µM.

Regarding `COC(=O)N1CCC(c2nc(-c3cncc([C@@](O)(c4ccc(C(C)C)cc4)C4(C)CN(C)C4)c3)no2)CC1` [Example 378], the 50% inhibitory concentration (IC50) stood at 0.0549 µM. Consider `CCOC(=O)N1CCC(c2nc(-c3cncc([C@@](O)(c4ccc(C(C)C)cc4)C4(C)CN(C)C4)c3)no2)CC1` [Example 379], for which the IC50 is 0.0412 µM. For `COCCOC(=O)N1CCC(c2nc(-c3cncc([C@@](O)(c4ccc(C(C)C)cc4)C4(C)CN(C)C4)c3)no2)CC1` [Example 380], the IC50 stood at 0.0715 µM. In the case of `CC(C)c1ccc([C@](O)(c2cncc(-c3noc(C4CCN(S(C)(=O)=O)CC4)n3)c2)C2(C)CN(C)C2)cc1` [Example 381] it was 0.0534 µM; in that of `CC(C)c1ccc([C@](O)(c2cncc(-c3noc(C4CCN(S(=O)(=O)C(C)C)CC4)n3)c2)C2(C)CN(C)C2)cc1` [Example 382], 0.0437 µM.

With `CCCS(=O)(=O)N1CCC(c2nc(-c3cncc([C@@](O)(c4ccc(C(C)C)cc4)C4(C)CN(C)C4)c3)no2)CC1` [Example 383], the half-inhibitory concentration (IC50) was determined as 0.0538 µM. In the case of `COCCS(=O)(=O)N1CCC(c2nc(-c3cncc([C@@](O)(c4ccc(C(C)C)cc4)C4(C)CN(C)C4)c3)no2)CC1` [Example 384] it was 0.0421 µM; in that of `CC(C)c1ccc([C@](O)(c2cncc(-c3noc(C4CCN(S(=O)(=O)CCO)CC4)n3)c2)C2(C)CN(C)C2)cc1` [Example 385], 0.117 µM; in that of `CC(C)c1ccc([C@](O)(c2cncc(-c3noc(C4CCN(S(=O)(=O)C5CCCC5)CC4)n3)c2)C2(C)CN(C)C2)cc1` [Example 386], 0.041 µM. Next, `CC(C)c1ccc([C@](O)(c2cncc(-c3noc(C4CCN(S(=O)(=O)C5CCOCC5)CC4)n3)c2)C2(C)CN(C)C2)cc1` [Example 387]: 0.0551 µM; `CNS(=O)(=O)N1CCC(c2nc(-c3cncc([C@@](O)(c4ccc(C(C)C)cc4)C4(C)CN(C)C4)c3)no2)CC1` [Example 388]: 0.0282 µM; `CNC1(c2nc(-c3cncc([C@@](O)(c4ccc(C(C)C)cc4)C4(C)CN(C)C4)c3)no2)CC1` [Example 389, (R)-(1,3-Dimethyl-azetidin-3-yl)-(4-isopropyl-phenyl)-{5-[5-(1-methylamino-cyclopropyl)-[1,2,4]oxadiazol-3-yl]-pyridin-3-yl}-methanol]: 0.0581 µM. With `CCOC(=O)N(C)C1(c2nc(-c3cncc([C@@](O)(c4ccc(C(C)C)cc4)C4(C)CN(C)C4)c3)no2)CC1` [Example 390], the IC50 was determined as 0.175 µM. With `CC(C)c1ccc([C@](O)(c2cncc(-c3noc(C4(N(C)S(C)(=O)=O)CC4)n3)c2)C2(C)CN(C)C2)cc1` [Example 391], the IC50 was 0.0588 µM. As to `CC(C)c1ccc([C@](O)(c2cnnc(OC3CCCC3(C)C)c2)C2(C)CN(C)C2)cc1` (stereo partly drawn) [Example 392, (R)-(1,3-Dimethyl-azetidin-3-yl)-[6-(2,2-dimethyl-cyclopentyloxy)-pyridazin-4-yl]-(4-isopropyl-phenyl)-methanol], the IC50 turned out to be 0.0242 µM.

Consider `CC(C)c1ccc([C@](O)(c2cnnc(OC3CCC(F)(F)C3)c2)C2(C)CN(C)C2)cc1` (stereo partly drawn) [Example 393, (R)-[6-(3,3-Difluoro-cyclopentyloxy)-pyridazin-4-yl]-(1,3-dimethyl-azetidin-3-yl)-(4-isopropyl-phenyl)-methanol], for which the IC50 is 0.0251 µM. Turning to `CC(C)c1ccc([C@](O)(c2cnnc(Oc3ccccc3CCO)c2)C2(C)CN(C)C2)cc1` [Example 394, 2-(2-{5-[(R)-(1,3-Dimethyl-azetidin-3-yl)-hydroxy-(4-isopropyl-phenyl)-methyl]-pyridazin-3-yloxy}-phenyl)-ethanol], the IC50 came out at 1.04 µM. As to `CC(C)c1ccc([C@](O)(c2cnnc(Oc3ccc(CCO)cc3)c2)C2(C)CN(C)C2)cc1` [Example 395], the IC50 was determined as 0.0601 µM. In the case of `CC(C)c1ccc([C@](O)(c2cnnc(Oc3ccc4c(c3)CCCO4)c2)C2(C)CN(C)C2)cc1` [Example 396] it was 0.0344 µM.

For the molecule `CC(C)c1ccc([C@](O)(c2cnnc(Oc3ccc4[nH]c(=O)oc4c3)c2)C2(C)CN(C)C2)cc1` [Example 397], the IC50 was determined as 0.0291 µM.

For the molecule `CCC(O)(C#Cc1cncc([C@@](O)(c2ccc(C(C)C)cc2)C2(C)CN(C)C2)c1)c1cc(C)ncn1` (stereo partly shown) [Example 398], the IC50 amounted to 0.0518 µM. In the case of `Cc1cc([C@@](C)(O)C#Cc2cncc([C@@](O)(c3ccc(C(C)C)cc3)C3(C)CN(C)C3)c2)ncn1` [Example 399] it was 0.107 µM. Next, `Cc1cc([C@](C)(O)C#Cc2cncc([C@@](O)(c3ccc(C(C)C)cc3)C3(C)CN(C)C3)c2)ncn1` [Example 400]: 0.16 µM. For `CC(C)c1ccc([C@](O)(c2cncc(C#CC3(c4ccc(F)cc4)CC3)c2)C2(C)CN(C)C2)cc1` [Example 403], the IC50 is 0.0404 µM. In the case of `CC(C)c1ccc([C@](O)(c2cncc(C#CC3(O)CCN(C(=O)OC(C)(C)C)C3)c2)C2(C)CN(C)C2)cc1` (stereo partly shown) [Example 406] it was 0.0376 µM.

On to `CC(C)c1ccc([C@](O)(c2cncc(C#CC3CCN(C(=O)OC(C)(C)C)CC3)c2)C2(C)CN(C)C2)cc1` [Example 407], for which the 50% inhibitory concentration (IC50) worked out at 0.0518 µM.

With `CCC(O)(CCc1cncc([C@@](O)(c2ccc(C(C)C)cc2)C2(C)CN(C)C2)c1)c1cc(C)ncn1` (stereo partly drawn) [Example 408, 1-{5-[(R)-(1,3-Dimethyl-azetidin-3-yl)-hydroxy-(4-isopropyl-phenyl)-methyl]-pyridin-3-yl}-3-(6-methyl-pyrimidin-4-yl)-pentan-3-ol], the IC50 was 0.138 µM.
